# Reference: patent publication US20240158404A1, “MODULATORS OF ALPHA-1 ANTITRYPSIN” (Vertex Pharmaceuticals Incorporated, priority 2022, published 2024)
# Target: T1, AAT (Homo sapiens, UniProt P01009, E366K)
# T1 construct: expressed in transfected cells; host or cells: NL20 human bronchial epithelial cells (NL20-SI cell line), with doxycycline added alongside the compounds
# Assay: Compound Quality score (potency in AAT functional assay multiplied by unbound clearance)
# Settings: compound potency (EC50) x unbound clearance; class symbols
# Text: As used herein, the term “Compound Quality” refers to the potency of a compound multiplied (x) by the compound's unbound clearance as measured using the assays described in Example 6.
# The terms “unbound clearance” refer to unbound intrinsic clearance (unbound CLint) in hepatocytes—the intrinsic clearance a drug would have in the absence of protein binding. Unbound CLint=CLint,hep/fu,hep, where CLint,hep is intrinsic clearance in hepatocytes and fu,hep is unbound fraction in hepatocytes.
# A key consideration for the selection of compounds suitable for clinical development is the projection of human dose as described in Equations 1-3. Two key parameters that comprise the dose equation are the unbound clearance of a compound and the plasma efficacious exposure (also referred to herein as compound potency). Together these parameters are known to one skilled in the art as a measurement of Compound Quality and suitability for advancement into clinical development. Thus, when evaluating AAT modulator compounds, one needs to consider both the potency and unbound clearance parameters (i.e., Compound Quality). The relationship between these two parameters can be challenging to predict.
# The values provided in the table below are calculated by multiplying the EC50 of each of the compounds by the result from the clearance assay procedures described in Section C above and rounded to two significant figures. In the table below, the following meanings apply for Compound Quality (i.e., compound potency x unbound clearance) values: “++++” means ≤0.2; “+++” means >0.20 and ≤0.30; “++” means >0.30 and ≤0.40; “+” means >0.40 and ≤0.50.
# T1 sequence (P01009 25-418 E366K): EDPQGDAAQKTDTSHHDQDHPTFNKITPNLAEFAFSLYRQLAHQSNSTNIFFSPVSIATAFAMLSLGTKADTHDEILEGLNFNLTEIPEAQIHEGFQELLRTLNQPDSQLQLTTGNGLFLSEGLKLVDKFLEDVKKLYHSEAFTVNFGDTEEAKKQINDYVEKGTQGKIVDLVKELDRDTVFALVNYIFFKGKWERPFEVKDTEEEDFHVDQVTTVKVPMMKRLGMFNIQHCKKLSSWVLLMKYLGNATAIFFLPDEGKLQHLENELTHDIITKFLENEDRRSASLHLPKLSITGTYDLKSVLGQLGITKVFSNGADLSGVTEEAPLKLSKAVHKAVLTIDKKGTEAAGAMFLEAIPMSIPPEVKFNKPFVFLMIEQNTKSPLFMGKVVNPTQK
row,Compound Quality,Compound
1,++++ (“++++” means ≤0.2),[2H]C([2H])([2H])C([2H])([2H])C(O)(COC)c1c(-c2ccc(C(=O)O)cc2)c2c(F)c3[nH]ncc3cc2n1-c1ccc(F)c(F)c1 (stereo not shown) [Compound 34]
2,++ (“++” means >0.30 and ≤0.40),CCc1cc(-c2c(C(O)(CC)COC)n(-c3ccc(F)c(OC)c3)c3cc4cn[nH]c4c(F)c23)ccc1C(=O)O (stereo not shown) [Compound 49]
3,++ (“++” means >0.30 and ≤0.40),COC1COCCC1(O)c1c(-c2ccc(C(=O)O)cc2)c2c(F)c3[nH]ncc3cc2n1-c1ccc(F)c(C)c1 (stereo not shown) [Compound 59]
4,+++ (“+++” means >0.20 and ≤0.30),COC1CCCCC1(O)c1c(-c2ccc(C(=O)O)cc2)c2c(F)c3[nH]ncc3cc2n1-c1ccc(F)c(F)c1 (stereo not shown) [Compound 23]
5,+++ (“+++” means >0.20 and ≤0.30),[2H]C([2H])([2H])Oc1cc(-n2c(C(O)(COC)C([2H])([2H])C([2H])([2H])[2H])c(-c3ccc(C(=O)O)cc3)c3c(F)c4[nH]ncc4cc32)ccc1F (stereo not shown) [Compound 46]
6,+ (“+” means >0.40 and ≤0.50),CCOC1CCCC1(O)c1c(-c2ccc(C(=O)O)cc2)c2c(F)c3[nH]ncc3cc2n1-c1ccc(F)c(OC)c1 (stereo not shown) [Compound 58]
7,++ (“++” means >0.30 and ≤0.40),[2H]C([2H])([2H])OCC(O)(CC)c1c(-c2ccc(C(=O)O)cc2)c2c(F)c3[nH]ncc3cc2n1-c1ccc(F)c(OC)c1 (stereo not shown) [Compound 53]
8,+++ (“+++” means >0.20 and ≤0.30),CCC(O)(COC)c1c(-c2ccc(C(=O)O)c(C)c2)c2c(F)c3[nH]ncc3cc2n1-c1ccc(F)c(OC)c1 (stereo not shown) [Compound 40]
9,+++ (“+++” means >0.20 and ≤0.30),COc1cc(-n2c(C3(O)CCCCC3OC)c(-c3ccc(C(=O)O)cc3)c3c(F)c4[nH]ncc4cc32)ccc1F (stereo not shown) [Compound 24]
10,++++ (“++++” means ≤0.2),[2H]C([2H])([2H])Oc1cc(-n2c(C3(O)CCCCC3OC)c(-c3ccc(C(=O)O)cc3)c3c(F)c4[nH]ncc4cc32)ccc1F (stereo not shown) [Compound 22]
11,+ (“+” means >0.40 and ≤0.50),CCC(O)(COC)c1c(-c2ccc(C(=O)O)cc2F)c2c(F)c3[nH]ncc3cc2n1-c1ccc(F)c(F)c1 (stereo not shown) [Compound 62]
12,++++ (“++++” means ≤0.2),CCC(O)(COC)c1c(-c2ccc(C(=O)O)c(C)c2)c2c(F)c3[nH]ncc3cc2n1-c1ccc(F)cc1 (stereo not shown) [Compound 35]
13,+++ (“+++” means >0.20 and ≤0.30),[2H]C([2H])([2H])OCC(O)(CC)c1c(-c2ccc(C(=O)O)cc2)c2c(F)c3[nH]ncc3cc2n1-c1ccc(F)c(F)c1 (stereo not shown) [Compound 33]
14,+ (“+” means >0.40 and ≤0.50),[2H]C([2H])([2H])Oc1cc(-n2c(C(O)(CC)COC)c(-c3ccc(C(=O)O)c(CC)c3)c3c(F)c4[nH]ncc4cc32)ccc1F (stereo not shown) [Compound 65]
15,+++ (“+++” means >0.20 and ≤0.30),COC1CCCC1(O)c1c(-c2ccc(C(=O)O)cc2)c2c(F)c3[nH]ncc3cc2n1-c1ccc(F)c(F)c1 (stereo not shown) [Compound 28]
16,++ (“++” means >0.30 and ≤0.40),[2H]C([2H])([2H])Oc1cc(-n2c(C(O)(CC)COC)c(-c3ccc(C(=O)O)c(C)c3)c3c(F)c4[nH]ncc4cc32)ccc1F (stereo not shown) [Compound 50]
17,++++ (“++++” means ≤0.2),[2H]C([2H])([2H])Oc1cc(-n2c(C3(O)CCCC[C@@H]3OC)c(-c3ccc(C(=O)O)c(C)c3)c3c(F)c4[nH]ncc4cc32)ccc1F (stereo partly shown) [Compound 54]
18,+++ (“+++” means >0.20 and ≤0.30),[2H]C([2H])([2H])C([2H])([2H])C(O)(COC)c1c(-c2ccc(C(=O)O)cc2)c2c(F)c3[nH]ncc3cc2n1-c1ccc(F)c(C)c1 (stereo not shown) [Compound 19]
19,+++ (“+++” means >0.20 and ≤0.30),[2H]C([2H])([2H])C([2H])([2H])C(O)(COC)c1c(-c2ccc(C(=O)O)cc2)c2c(F)c3[nH]ncc3cc2n1-c1ccc(F)c(Cl)c1 (stereo not shown) [Compound 12]
20,+++ (“+++” means >0.20 and ≤0.30),CC[C@](O)(COC)c1c(-c2ccc(C(=O)O)cc2)c2c(F)c3[nH]ncc3cc2n1-c1ccc(F)c(C)c1 [Compound 7]
21,+++ (“+++” means >0.20 and ≤0.30),[2H]C([2H])([2H])OCC(O)(CC)c1c(-c2ccc(C(=O)O)cc2)c2c(F)c3[nH]ncc3cc2n1-c1ccc(F)c(OC([2H])([2H])[2H])c1 (stereo not shown) [Compound 45]
22,++ (“++” means >0.30 and ≤0.40),COC1CCCC1(O)c1c(-c2ccc(C(=O)O)cc2)c2c(F)c3[nH]ncc3cc2n1-c1ccc(F)cc1 (stereo not shown) [Compound 27]
23,++ (“++” means >0.30 and ≤0.40),[2H]C([2H])([2H])OCC(O)(CC)c1c(-c2ccc(C(=O)O)cc2)c2c(F)c3[nH]ncc3cc2n1-c1ccc(F)cc1 (stereo not shown) [Compound 52]

row,Compound Quality,Compound
1,+++ (“+++” means >0.20 and ≤0.30),CCC(O)(COC(C)C)c1c(-c2ccc(C(=O)O)cc2)c2c(F)c3[nH]ncc3cc2n1-c1ccc(F)c(OC)c1 (stereo not shown) [Compound 13]
2,+ (“+” means >0.40 and ≤0.50),CCC(O)(COC)c1c(-c2ccc(C(=O)O)c(C)c2)c2c(F)c3[nH]ncc3cc2n1-c1cccc(F)c1 (stereo not shown) [Compound 44]
3,++ (“++” means >0.30 and ≤0.40),COc1cc(-n2c(C3(O)CCCCC3F)c(-c3ccc(C(=O)O)cc3)c3c(F)c4[nH]ncc4cc32)ccc1F (stereo not shown) [Compound 66]
4,++ (“++” means >0.30 and ≤0.40),CO[C@H]1CCCCC1(O)c1c(-c2ccc(C(=O)O)c(F)c2)c2c(F)c3[nH]ncc3cc2n1-c1ccc(F)cc1 (stereo partly shown) [Compound 67]
5,+ (“+” means >0.40 and ≤0.50),[2H]C([2H])([2H])OC[C@@](O)(c1c(-c2ccc(C(=O)O)cc2)c2c(F)c3[nH]ncc3cc2n1-c1ccc(F)c(C)c1)C([2H])([2H])C([2H])([2H])[2H] [Compound 57]
6,+++ (“+++” means >0.20 and ≤0.30),[2H]C([2H])([2H])C([2H])([2H])C(O)(COC)c1c(-c2ccc(C(=O)O)cc2)c2c(F)c3[nH]ncc3cc2n1-c1ccc(F)c(C)c1 (stereo not shown) [Compound 38]
7,+++ (“+++” means >0.20 and ≤0.30),CCC(O)(COC)c1c(-c2ccc(C(=O)O)c(C)c2)c2c(F)c3[nH]ncc3cc2n1-c1ccc(F)c(F)c1 (stereo not shown) [Compound 17]
8,+++ (“+++” means >0.20 and ≤0.30),[2H]C([2H])([2H])C([2H])([2H])C(O)(COC)c1c(-c2ccc(C(=O)O)cc2)c2c(F)c3[nH]ncc3cc2n1-c1ccc(F)c(OC)c1 (stereo not shown) [Compound 47]
9,++ (“++” means >0.30 and ≤0.40),[2H]C([2H])([2H])C([2H])([2H])C(O)(COC)c1c(-c2ccc(C(=O)O)cc2)c2c(F)c3[nH]ncc3cc2n1-c1ccc(F)c(OC)c1 (stereo not shown) [Compound 20]
10,++ (“++” means >0.30 and ≤0.40),[2H]C([2H])([2H])Oc1cc(-n2c([C@@](O)(CC)COC)c(-c3ccc(C(=O)O)cc3)c3c(F)c4[nH]ncc4cc32)ccc1F [Compound 10]
11,++ (“++” means >0.30 and ≤0.40),COc1cc(-n2c(C3(O)CCCC[C@@H]3OC)c(-c3ccc(C(=O)O)c(C)c3)c3c(F)c4[nH]ncc4cc32)ccc1F (stereo partly shown) [Compound 55]
12,+++ (“+++” means >0.20 and ≤0.30),CO[C@H]1CCCCC1(O)c1c(-c2ccc(C(=O)O)cc2)c2c(F)c3[nH]ncc3cc2n1-c1ccc(F)c(F)c1F (stereo partly shown) [Compound 60]
13,+++ (“+++” means >0.20 and ≤0.30),COC1CCCCC1(O)c1c(-c2ccc(C(=O)O)cc2)c2c(F)c3[nH]ncc3cc2n1-c1cccc(F)c1 (stereo not shown) [Compound 25]
14,+ (“+” means >0.40 and ≤0.50),CCC(O)(CCOC)c1c(-c2ccc(C(=O)O)cc2)c2c(F)c3[nH]ncc3cc2n1-c1ccc(F)cc1 (stereo not shown) [Compound 41]
15,++ (“++” means >0.30 and ≤0.40),[2H]C([2H])([2H])Oc1cc(-n2c(C3(O)CCCC[C@@H]3OC)c(-c3ccc(C(=O)O)cc3)c3c(F)c4[nH]ncc4cc32)ccc1F (stereo partly shown) [Compound 51]
16,++ (“++” means >0.30 and ≤0.40),CC[C@](O)(COC)c1c(-c2ccc(C(=O)O)cc2)c2c(F)c3[nH]ncc3cc2n1-c1ccc(F)c(F)c1 [Compound 6]
17,+++ (“+++” means >0.20 and ≤0.30),[2H]C([2H])([2H])C([2H])([2H])C(O)(COC)c1c(-c2ccc(C(=O)O)cc2)c2c(F)c3[nH]ncc3cc2n1-c1ccc(F)cc1 (stereo not shown) [Compound 37]
18,++ (“++” means >0.30 and ≤0.40),CCOCC(O)(c1c(-c2ccc(C(=O)O)cc2)c2c(F)c3[nH]ncc3cc2n1-c1ccc(F)cc1)C1CC1 (stereo not shown) [Compound 14]
19,+ (“+” means >0.40 and ≤0.50),CC[C@](O)(COC)c1c(-c2ccc(C(=O)O)cc2)c2c(F)c3[nH]ncc3cc2n1-c1ccc(F)c(OC)c1 [Compound 8]
20,+++ (“+++” means >0.20 and ≤0.30),CCOCC(O)(CC)c1c(-c2ccc(C(=O)O)cc2)c2c(F)c3[nH]ncc3cc2n1-c1ccc(F)c(F)c1 (stereo not shown) [Compound 11]
21,+++ (“+++” means >0.20 and ≤0.30),CCC(O)(COC)c1c(-c2ccc(C(=O)O)c(C)c2)c2c(F)c3[nH]ncc3cc2n1-c1ccc(F)c(F)c1 (stereo not shown) [Compound 39]
22,+ (“+” means >0.40 and ≤0.50),CCc1cc(-c2c(C(O)(CC)COC)n(-c3ccc(F)c(F)c3)c3cc4cn[nH]c4c(F)c23)ccc1C(=O)O (stereo not shown) [Compound 48]
23,++ (“++” means >0.30 and ≤0.40),CC[C@@](O)(COC)c1c(-c2ccc(C(=O)O)cc2)c2c(F)c3[nH]ncc3cc2n1-c1cc(C)c(F)c(F)c1 [Compound 42]
